Data from patent publication US20170100433A1, “MODIFIED NATURAL KILLER CELLS HAVING ANTI-FUGETACTIC PROPERTIES AND USES THEREOF” (THE GENERAL HOSPITAL CORPORATION DBA MASSACHUSETTS GENERAL …, priority 2015, published 2017).

How the values were obtained:
[1] = tested on: human CD3+ T cells; details: CI of 1.0 is the control, triplicate wells
Protocol: Freshly prepared and purified human CD3^+ T cells were prepared from healthy donor peripheral blood. 20,000 T cells were loaded into the upper chamber of the Transwell in control, chemotactic or fugetactic settings with AMD3100 at concentrations between 0.1 μM and 10 μM. Migrated cells were counted in the lower chamber and migration quantitated as previously described. Vianello et al. The Journal of Immunology, 2006, 176: 2902-2914; Righi et al., Cancer Res.; 71(16); 5522-34, each of which is incorporated herein in its entirety.
All wells were run in triplicate.

[2] = tested on: human CD3+ T cells; details: T cells incubated with 0.01 μM to 10 mM AMD3100; anti-fugetactic at lower, fugetactic at higher concentrations; cells harvested after 3 h
Protocol: For quantitative transmigration assays, purified human CD3^+ T cells (approximately 2×10^4 cells) are added to the upper chamber of a Transwell® insert in each well, to a total volume of 150 μl of Iscove's modified medium. […] To determine the anti-fugetactic concentration of AMD3100, the T cells are incubated with 0.01 μM to 10 mM AMD3100 prior to addition to the chamber. Cells are harvested from the lower chamber after 3 h, and cell counts are performed using a hemocytometer.

SMILES: c1cc(CN2CCCNCCNCCCNCC2)ccc1CN1CCCNCCNCCCNCC1 [AMD3100, 1,1′-[1,4-phenylenebis(methylene)]bis [1,4,8,11-tetraazacyclotetradecane]]
- CI (chemotactic index), chemotactic response ([1]; chemotactic setting, AMD3100 at 1 μM, FIG. 1): 2.3
- CI (chemotactic index), fugetactic response ([1]; fugetactic setting, AMD3100 at 0.1 μM, FIG. 2): 1.6
- Effect of AMD3100 pre-incubation on T cell migration [2]: bimodal effect
